The target in one assay is T1, Muscarinic M1 (Homo sapiens, UniProt P11229).
T1 sequence (P11229 1-460): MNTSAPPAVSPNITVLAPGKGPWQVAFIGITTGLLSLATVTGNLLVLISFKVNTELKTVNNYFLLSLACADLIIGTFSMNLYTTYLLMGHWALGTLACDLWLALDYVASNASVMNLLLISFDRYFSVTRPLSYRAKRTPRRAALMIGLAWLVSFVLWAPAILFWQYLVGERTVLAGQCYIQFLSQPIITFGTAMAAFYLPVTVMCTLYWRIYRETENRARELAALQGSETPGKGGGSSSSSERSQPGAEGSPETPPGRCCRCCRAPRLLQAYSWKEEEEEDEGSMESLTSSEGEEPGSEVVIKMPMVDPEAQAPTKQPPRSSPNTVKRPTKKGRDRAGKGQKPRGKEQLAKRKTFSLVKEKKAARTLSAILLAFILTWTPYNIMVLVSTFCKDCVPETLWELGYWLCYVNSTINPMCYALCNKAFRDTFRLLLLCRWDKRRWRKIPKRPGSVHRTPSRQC
The assay is described as follows: Receptor binding, Muscarinic M1. The conditions noted are these: read-out: Setiptiline (Ki). An excerpt:
(§1) 5HT3 antagonists are used to treat various maladies of the gastrointestinal tract, such as irritable bowel syndrome-diarrhea predominant and nausea and vomiting associated with chemotherapy. One potentially serious side effect of strong 5HT3 antagonists is constipation, which in some cases may be so severe as to lead to ischemic colitis.

The target of another assay is NET (Homo sapiens, UniProt P23975). Put plainly: Receptor binding, NET. The conditions noted are these: read-out: Setiptiline (Ki).
Sequence of NET (P23975 whole entry): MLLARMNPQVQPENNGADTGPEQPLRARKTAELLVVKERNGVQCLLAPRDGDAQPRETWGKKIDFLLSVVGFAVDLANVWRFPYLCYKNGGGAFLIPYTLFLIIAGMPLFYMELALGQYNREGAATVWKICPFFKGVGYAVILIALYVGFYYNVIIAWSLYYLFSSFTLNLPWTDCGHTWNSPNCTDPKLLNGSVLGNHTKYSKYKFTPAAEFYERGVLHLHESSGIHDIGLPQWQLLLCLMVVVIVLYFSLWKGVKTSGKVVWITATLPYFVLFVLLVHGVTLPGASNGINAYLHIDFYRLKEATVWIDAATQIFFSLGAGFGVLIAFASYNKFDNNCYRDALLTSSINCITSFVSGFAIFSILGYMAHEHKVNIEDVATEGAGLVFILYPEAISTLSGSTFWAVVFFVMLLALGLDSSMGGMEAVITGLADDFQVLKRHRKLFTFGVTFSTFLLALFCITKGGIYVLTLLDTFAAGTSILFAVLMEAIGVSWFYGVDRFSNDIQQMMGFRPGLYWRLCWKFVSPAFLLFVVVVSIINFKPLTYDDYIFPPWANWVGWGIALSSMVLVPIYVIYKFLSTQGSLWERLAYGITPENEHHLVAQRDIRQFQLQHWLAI
Excerpt: as §1

In a further assay the target is SERT (Homo sapiens, UniProt P31645). The assay is described as follows: Receptor binding, SERT. Particulars: read-out: Setiptiline (Ki).
Sequence of SERT (P31645 whole entry, species assumed): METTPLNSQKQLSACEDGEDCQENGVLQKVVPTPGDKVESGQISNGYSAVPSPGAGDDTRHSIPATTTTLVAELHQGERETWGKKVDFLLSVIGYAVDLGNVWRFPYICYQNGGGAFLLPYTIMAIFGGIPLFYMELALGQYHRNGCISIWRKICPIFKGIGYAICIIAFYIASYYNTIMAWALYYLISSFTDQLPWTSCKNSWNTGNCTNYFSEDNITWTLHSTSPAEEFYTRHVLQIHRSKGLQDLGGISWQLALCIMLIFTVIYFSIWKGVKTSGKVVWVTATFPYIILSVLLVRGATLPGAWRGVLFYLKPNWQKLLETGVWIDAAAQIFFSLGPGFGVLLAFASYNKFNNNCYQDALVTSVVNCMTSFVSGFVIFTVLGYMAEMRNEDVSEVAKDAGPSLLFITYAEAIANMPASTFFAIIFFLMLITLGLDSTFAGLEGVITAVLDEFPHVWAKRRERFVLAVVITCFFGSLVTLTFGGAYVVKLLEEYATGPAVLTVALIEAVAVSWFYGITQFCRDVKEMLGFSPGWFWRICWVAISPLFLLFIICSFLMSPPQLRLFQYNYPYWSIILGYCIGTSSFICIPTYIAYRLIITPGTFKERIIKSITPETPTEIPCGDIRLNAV
Excerpt: as §1

Assay [1] addresses 5HT2, non-selective. Put plainly: Receptor binding, 5HT2 non-selective. Particulars: 5HT2, non-selective receptor; read-out: Setiptiline (Ki).
Excerpt: as §1

For assay [2], the target named is T2, 5HT2C (Homo sapiens, UniProt P28335). Put plainly: Receptor binding, 5HT2C. Particulars: 5HT2C receptor; read-out: Setiptiline (Ki).
T2 sequence (P28335 33-458, species assumed): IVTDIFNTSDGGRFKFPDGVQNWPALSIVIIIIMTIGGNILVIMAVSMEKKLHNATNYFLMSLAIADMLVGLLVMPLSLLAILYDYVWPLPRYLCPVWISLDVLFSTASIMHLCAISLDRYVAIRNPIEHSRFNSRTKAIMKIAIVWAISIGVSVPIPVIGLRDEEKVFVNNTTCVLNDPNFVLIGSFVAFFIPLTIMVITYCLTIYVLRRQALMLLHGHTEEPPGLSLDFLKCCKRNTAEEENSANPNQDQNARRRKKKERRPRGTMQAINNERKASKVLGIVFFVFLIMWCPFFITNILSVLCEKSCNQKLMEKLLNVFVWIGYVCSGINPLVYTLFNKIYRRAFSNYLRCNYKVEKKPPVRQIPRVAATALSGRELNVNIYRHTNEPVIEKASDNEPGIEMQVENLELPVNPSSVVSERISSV
Excerpt: as §1

Assay [3] concerns the target T3, 5HT3 (Homo sapiens, UniProt P46098).
T3 sequence (P46098 24-478): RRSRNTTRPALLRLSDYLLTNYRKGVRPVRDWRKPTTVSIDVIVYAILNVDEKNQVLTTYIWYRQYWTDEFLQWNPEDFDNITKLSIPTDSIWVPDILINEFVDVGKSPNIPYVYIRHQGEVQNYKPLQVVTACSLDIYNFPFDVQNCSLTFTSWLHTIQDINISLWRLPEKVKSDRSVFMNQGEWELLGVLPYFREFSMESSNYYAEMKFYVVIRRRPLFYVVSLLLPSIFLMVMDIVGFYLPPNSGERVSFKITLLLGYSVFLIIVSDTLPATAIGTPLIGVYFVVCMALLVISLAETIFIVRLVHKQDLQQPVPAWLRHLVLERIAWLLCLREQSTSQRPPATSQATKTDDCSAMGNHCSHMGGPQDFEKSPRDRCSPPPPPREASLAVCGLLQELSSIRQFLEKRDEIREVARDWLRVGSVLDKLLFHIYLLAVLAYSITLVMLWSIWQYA
Put plainly: Receptor binding, 5HT3. The conditions noted are these: 5HT3 receptor; read-out: Setiptiline (Ki).
Excerpt: as §1

Assay [4] addresses α1, non-selective. Put plainly: Receptor binding, α1 non-selective. The conditions noted are these: read-out: Setiptiline (Ki).
Excerpt: as §1

For assay [5], the target named is α2, non-selective. The assay is described as follows: Receptor binding, α2 non-selective. The conditions noted are these: read-out: Setiptiline (Ki).
Excerpt: as §1

For assay [6], the target named is T4, 5HT1A sertotonin receptor (Homo sapiens, UniProt P08908).
T4 sequence (P08908 1-422): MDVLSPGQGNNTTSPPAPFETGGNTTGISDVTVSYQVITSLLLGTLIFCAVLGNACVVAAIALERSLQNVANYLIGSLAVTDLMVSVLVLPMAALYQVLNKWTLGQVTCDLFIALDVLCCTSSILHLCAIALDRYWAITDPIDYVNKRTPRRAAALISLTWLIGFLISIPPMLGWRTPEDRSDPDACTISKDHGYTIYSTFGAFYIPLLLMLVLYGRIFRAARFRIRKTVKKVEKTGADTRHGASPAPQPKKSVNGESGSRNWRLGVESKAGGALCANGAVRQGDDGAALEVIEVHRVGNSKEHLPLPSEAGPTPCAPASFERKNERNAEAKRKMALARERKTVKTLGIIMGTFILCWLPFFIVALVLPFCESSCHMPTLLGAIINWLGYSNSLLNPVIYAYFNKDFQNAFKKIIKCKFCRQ
Put plainly: Affinity for the 5HT1A serotonin receptor. It is filed as binding. The conditions noted are these: read-out: affinity for the 5HT1A sertotonin receptor (pKi) (converted).

Assay [7] has as its target α2, non-selective. The conditions noted are these: read-out: Mirtazapine (Ki); α2, non-selective receptor; from de Boer et al., 1996; cited from earlier work.
The target of assay [8] is T3, 5HT3. The conditions noted are these: read-out: Mirtazapine (Ki); 5HT3 receptor; from de Boer et al., 1996; cited from earlier work.
Assay [9] deals with 5HT2, non-selective. The conditions noted are these: read-out: Mirtazapine (Ki); 5HT2, non-selective receptor; from de Boer et al., 1996; cited from earlier work.
In assay [10] the target is α1, non-selective. Particulars: read-out: Mirtazapine (Ki); α1, non-selective receptor; from de Boer et al., 1996; cited from earlier work.
Assay [11] deals with T2, 5HT2C. The conditions noted are these: read-out: Mirtazapine (Ki); 5HT2C receptor; from de Boer et al., 1996; cited from earlier work.

Like-named read-outs stand apart in the source and are kept apart here.

Turning to `CN1CCC2=C(C1)c1ccccc1Cc1ccccc12`, the Ki on Muscarinic M1 was 258 nM; on NET, 1960 nM; on SERT, greater than 10000 nM; on 5HT2, non-selective [1], 0.71 nM; on 5HT2C [2], 0.47 nM; at 5HT3 [3], 757 nM. For the same compound, the Ki on α1, non-selective [4] worked out at 144 nM; at α2, non-selective [5], 93 nM.
On to `CC1CN(c2cccc(Cl)c2)CCN1CCCn1nc2ccccn2c1=O` (centres unmarked) [MER 810], for which the Ki in [6] is 85.1 nM.
For `CN1CCN2c3ncccc3Cc3ccccc3C2C1` (centres unmarked) [Mirtazapine], the Ki was 50 nM on α2, non-selective [7]; 79 nM on 5HT3 [8]; 6.3 nM at 5HT2, non-selective [9]; 501 nM at α1, non-selective [10]; 13 nM on 5HT2C [11].

Source of the values: patent US20060039867A1, “Method for treating sleep-related breathing disorders with setiptiline” (Cypress Bioscience, Inc., priority 2004, published 2006).
